According to US20040171696A1, “Pharmaceutical composition for the treatment of the decline and/or damage of cognitive functions” (priority 2001, published 2004):

Experiments:
[1] = tested on: Male Wistar rats; test: step through passive avoidance learning; type: in vivo, rat; settings: ip, FIG. 1
Description: Male Wistar rats weighing 200-220 g were used. The animals were obtained from Charles River Co. They were kept in a room with normal 12-12 h light dark cycle (light on: 06:00) at a relative humidity of 60±10%.
The experiment was performed in a five-channel “step through”-type passive avoidance learning apparatus. The equipment consisted of two adjacent Plexi-glass boxes of 20×20×16 cm. One of them was made of regular transparent Plexi-glass and the other one was made of black, non-transparent Plexi-glass. The boxes were connected with a 7.5×8 cm passage way, equipped with a computer-controlled guillotine-door. The passage of the rats through the door was detected by infrared photocells arranged in two parallel lines in the opening of the passage way. The door was automatically closed when the animals passed through. The dark compartment was equipped with stainless steel grid floor through which electric foot shocks could be delivered to the animals. […]
The individually numbered animals were placed into the light compartment of the equipment. […] Step through latency was automatically determined. […]
After 24 h the animals were placed again in the light compartment of the test apparatus and step-through latency was measured as described at Acquisition day, except that no foot shock was applied to the animals in any group on the second day. […]

[2] = per os 10 and 30 mg/kg; cited from earlier work
[3] = target: central 5-HT2C receptors (Homo sapiens, UniProt P28335); settings: cited from earlier work
[4] = tested on: rats; settings: 1 and 10 mg/kg per os; cited from earlier work
[5] = intraperitoneal 1 and 10 mg/kg; cited from earlier work
[6] = as low as 0.7 mg/kg intraperitoneal; cited from earlier work
[7] = target: central 5-HT2A receptors (Homo sapiens, UniProt P28223); settings: cited from earlier work
[8] = 3 mg/kg single subcutaneous administration; cited from earlier work
[9] = cited from earlier work

Chain of central 5-HT2A receptors (P28223 whole entry): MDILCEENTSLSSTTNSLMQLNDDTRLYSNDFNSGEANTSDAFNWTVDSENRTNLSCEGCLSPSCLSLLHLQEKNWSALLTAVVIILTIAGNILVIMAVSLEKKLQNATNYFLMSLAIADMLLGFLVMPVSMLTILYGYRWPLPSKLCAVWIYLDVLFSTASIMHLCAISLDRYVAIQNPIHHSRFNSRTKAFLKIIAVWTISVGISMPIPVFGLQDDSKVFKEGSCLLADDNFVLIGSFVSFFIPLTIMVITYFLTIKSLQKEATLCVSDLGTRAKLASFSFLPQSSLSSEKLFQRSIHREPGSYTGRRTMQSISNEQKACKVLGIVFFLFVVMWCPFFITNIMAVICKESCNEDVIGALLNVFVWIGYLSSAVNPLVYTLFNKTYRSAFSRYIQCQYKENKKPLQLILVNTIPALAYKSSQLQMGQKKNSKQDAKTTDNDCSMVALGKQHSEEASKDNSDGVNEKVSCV
Chain of central 5-HT2C receptors (P28335 33-458): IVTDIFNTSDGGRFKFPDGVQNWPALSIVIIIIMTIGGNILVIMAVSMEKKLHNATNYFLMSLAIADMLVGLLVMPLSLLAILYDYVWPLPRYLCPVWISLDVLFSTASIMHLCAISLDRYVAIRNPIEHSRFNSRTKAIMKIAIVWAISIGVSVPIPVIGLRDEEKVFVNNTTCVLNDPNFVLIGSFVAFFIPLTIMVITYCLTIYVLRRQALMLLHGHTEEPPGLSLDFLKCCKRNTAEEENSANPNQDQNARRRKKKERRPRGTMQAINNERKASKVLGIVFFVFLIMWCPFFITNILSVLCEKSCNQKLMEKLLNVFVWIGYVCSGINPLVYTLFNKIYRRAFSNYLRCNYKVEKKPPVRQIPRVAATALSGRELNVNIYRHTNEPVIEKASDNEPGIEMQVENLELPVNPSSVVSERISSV

Compound | step-through latency into the dark compartment ([1]; Day 1 administration, 30 min before Acquisition, latency on Day 2) | step-through latency into the dark compartment ([1]; Day 2 administration, 30 min before Retention test) | activity in marble burying test [2] | binding to 5-HT2C receptors [3] | effect in Vogel lick-conflict model [4] | effect in learned helplessness [5] | number of social interactions [6] | binding to 5-HT2A receptors [7] | anxiolytic activity in light-dark model [8] | effect on CCK agonist induced anxiety in elevated plus-maze ([9]; CCK agonist induced anxiety) | activity in elevated plus-maze, alone ([9]; deramciclane alone)
CN(C)CCO[C@]1(c2ccccc2)C[C@H]2CC[C@]1(C)C2(C)C.O=C(O)/C=C/C(=O)O [(1R,2S,4R)-(−)-2-(2-dimethylaminoethoxy)-2-phenyl-1,7,7-trimethyl-bicyclo[2.2.1]heptane-fumarate] | significantly increased | significantly increased |  |  |  |  |  |  |  |  | 
CN(C)CCO[C@]1(c2ccccc2)C[C@H]2CC[C@]1(C)C2(C)C [deramciclane, (1R,2S,4R)-(−)-2-(2-dimethylaminoethoxy)-2-phenyl-1,7,7-trimethylbicyclo[2.2.1]heptane] |  |  | displayed significant activity | binds | effective | effective | increased the number of social interactions | binds | showed anxiolytic activity | antagonized CCK agonist induced anxiety | completely inactive
